From patent US5288709A, “Erythromycin derivatives” (priority 1991, dated 1994)
Converted amounts (≈) assume the structure as drawn. Like-named read-outs stand apart in the source and are kept apart here.

Columns and labels:
[1] = test system: Staphylococcus aureus (NCTC 10649); assay: In-vivo acute mouse protection assay; design: species or system Staphylococcus aureus; female Swiss albino mice; details: Staphylococcus aureus, NCTC10649, sc, 168 h; subcutaneous; dosed 1 and 5 h post-infection, observed 7 days; read-out: ED50
Experimental: (§1) An acute mouse protection test was conducted on ten mice with each of three concentrations of selected compounds of the invention. Each concentration was a four-fold dilution of the previous concentration. The initial concentration will vary with the microorganism with which the mouse is challenged.
(§2) The acute mouse protection test was conducted on female, Swiss albino mice, 18-20 grams in weight. […] To check the potency of the inoculum, a titration of the indicated test organism was carried out in control animals. The titration determines the LD50 for a particular microorganism. The treatment groups of animals were dosed orally, by gavage, or subcutaneously with the test compounds at 1 and 5 hours post-infection and observed for 7 days. The ED50 were calculated using the mortality data collected.

[2] = test system: Streptococcus pneumoniae (ATCC 6303); assay: In-vivo acute mouse protection assay; design: species or system Streptococcus pneumoniae; female Swiss albino mice; details: dosed 1 and 5 h post-infection, observed 7 days
Experimental: as §1, §2

[3] = test system: Staphylococcus aureus CMX 553; assay: In-vitro antimicrobial activity primary screen (agar dilution MIC); type: cell-based; details: Staphylococcus aureus, CMX553, 24 h, BHI agar, 20-24 h, read-out: MIC
Summary of the method: (§3)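 Agar dilution in Brain Heart Infusion agar with twelve successive compound dilutions; plates inoculated with 1:100 diluted cultures by replicator and incubated 20-24 h at 35-37 °C. MIC is the lowest concentration giving no growth, slight haze or sparse isolated colonies versus compound-free control; erythromycin A plate run as reference.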

[4] = test system: Staphylococcus aureus CMX 686B; assay: as above; type: cell-based; details: CMX686B, BHI agar, 20-24 h, read-out: MIC
Summary of the method: as §3

[5] = test system: Staphylococcus aureus CMX 503A; assay: as above; type: cell-based; details: Staphylococcus aureus, CMX503A, 24 h, BHI agar, 20-24 h, read-out: MIC
Summary of the method: as §3

[6] = test system: Streptococcus pyogenes C-203; assay: In-vivo acute mouse protection assay; design: species or system Streptococcus pyogenes; female Swiss albino mice; details: dosed 1 and 5 h post-infection, observed 7 days
Experimental: as §1, §2

[7] = test system: Escherichia coli JUHL; assay: In-vitro antimicrobial activity primary screen (agar dilution MIC); type: cell-based
Summary of the method: (§4)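 Minimum inhibitory concentrations come from twelve-step agar dilution in BHI medium. Strains, diluted 1:100 or 1:10 if slow-growing, were replicator-plated and incubated 20-24 h, 35-37° C; haze or sparse colonies counted as inhibition.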

[8] = test system: Micrococcus luteus ATCC 9341; assay: as above; type: cell-based; details: 20-24 h
Summary of the method: as §4

[9] = test system: Enterobacter aerogenes ATCC 13048; assay: as above; type: cell-based; details: Klebsiella aerogenes, ATCC13048, 24 h, Enterobacter aerogenes ATCC 13048; BHI agar, 20-24 h
Summary of the method: as §4

[10] = test system: Pseudomonas aeruginosa A5007; assay: as above; type: cell-based
Summary of the method: as §4

[11] = test system: Pseudomonas aeruginosa BMH10; assay: as above; type: cell-based; details: Pseudomonas aeruginosa, BMH10, 24 h, BHI agar, 20-24 h
Summary of the method: as §4

[12] = test system: Pseudomonas cepacia 2961; assay: as above; type: cell-based; details: BHI agar, 20-24 h
Summary of the method: as §4

[13] = test system: Escherichia coli SS; assay: as above; type: cell-based; details: BHI agar, 20-24 h, read-out: MIC
Summary of the method: as §4

[14] = test system: Staphylococcus aureus 45; assay: as above; type: cell-based; details: BHI agar, 20-24 h, read-out: MIC
Summary of the method: as §4

[15] = test system: Staphylococcus aureus A5177; assay: as above; type: cell-based; details: Staphylococcus aureus A5177, BHI agar, 20-24 h
Summary of the method: as §4

[16] = test system: Streptococcus pyrogenes 2548 INDUC; assay: as above; type: cell-based; details: BHI agar, 20-24 h, read-out: MIC
Summary of the method: as §4

[17] = test system: Streptococcus pyrogenes EES61; assay: as above; type: cell-based; details: BHI agar, 20-24 h, read-out: MIC
Summary of the method: as §4

[18] = test system: Streptococcus agalactiae CMX 508; assay: as above; type: cell-based; details: CMX508, BHI agar, 20-24 h, read-out: MIC
Summary of the method: as §4

[19] = test system: Micrococcus luteus ATCC 4698; assay: as above; type: cell-based; details: ATCC4698, BHI agar, 20-24 h, read-out: MIC
Summary of the method: as §4

[20] = test system: Streptococcus bovis A5169; assay: as above; type: cell-based; details: Streptococcus equinus, BHI agar, 20-24 h, read-out: MIC
Summary of the method: as §4

[21] = test system: Enterococcus faecium ATCC 8043; assay: as above; type: cell-based
Summary of the method: as §4

[22] = test system: Acinetobacter SP CMX 669; assay: as above; type: cell-based
Summary of the method: as §4

[23] = test system: Escherichia coli H560; assay: as above; type: cell-based; details: Escherichia coli H560; BHI agar, 20-24 h; read-out: MIC
Summary of the method: as §4

[24] = test system: Staphylococcus aureus ATCC 6538P; assay: as above; type: cell-based; details: Staphylococcus aureus, ATCC6538P, 24 h, BHI agar, 20-24 h
Summary of the method: as §4

[25] = test system: Pseudomonas aeruginosa K799/61; assay: as above; type: cell-based; details: Pseudomonas aeruginosa K799/61; BHI agar, 20-24 h; read-out: MIC
Summary of the method: as §4

[26] = test system: Pseudomonas aeruginosa K799/WT; assay: as above; type: cell-based
Summary of the method: as §4

[27] = test system: Escherichia coli DC-2; assay: as above; type: cell-based; details: DC2; Escherichia coli DC-2; BHI agar, 20-24 h; read-out: MIC
Summary of the method: as §4

[28] = test system: Providencia stuartii CMX 640; assay: as above; type: cell-based
Summary of the method: as §4

[29] = test system: Staphylococcus epidermidis 3519; assay: as above; type: cell-based; details: BHI agar, 20-24 h, read-out: MIC
Summary of the method: as §4

[30] = test system: Staphylococcus aureus 45 RAR2; assay: as above; type: cell-based; details: Staphylococcus aureus, 45RAR2, 24 h, BHI agar, 20-24 h
Summary of the method: as §4

[31] = test system: Klebsiella pneumoniae ATCC 8045; assay: as above; type: cell-based; details: Klebsiella pneumoniae, ATCC8045, 24 h
Summary of the method: as §4

[32] = test system: Staphylococcus aureus 642A; assay: as above; type: cell-based; details: BHI agar, 20-24 h, read-out: MIC
Summary of the method: as §4

[33] = test system: Staphylococcus aureus NCTC 10649; assay: as above; type: cell-based; details: NCTC10649, BHI agar, 20-24 h, read-out: MIC
Summary of the method: as §4

Row | SMILES | MIC [3] [µg/mL] | MIC [9] [µg/mL] | MIC [11] [µg/mL] | MIC [13] [µg/mL] | MIC [14] [µg/mL] | MIC [16] [µg/mL] | MIC [17] [µg/mL] | MIC [18] [µg/mL] | MIC [19] [µg/mL] | MIC [20] [µg/mL] | MIC [23] [µg/mL] | MIC [24] [µg/mL] | MIC [25] [µg/mL] | MIC [27] [µg/mL] | MIC [29] [µg/mL] | MIC [30] [µg/mL] | also measured
1 | CC[C@H]1OC(=O)[C@H](C)[C@@H](O[C@H]2C[C@@](C)(OC)[C@@H](N)[C@H](C)O2)[C@H](C)[C@@H](O[C@@H]2O[C@H](C)C[C@H](N(C)C)[C@H]2O)[C@](C)(O)C[C@@H](C)[C@@H]2O[C@@]1(C)[C@@H](O)[C@H]2C [Example 15, (4"S,9S,11S)-4"-Amino-9-deoxo-4",12-dideoxy-9,12-epoxyerythromycin A] | 0.2 (≈ 0.279 µM) | 50 (≈ 69.7 µM) | 50 (≈ 69.7 µM) | 0.1 (≈ 0.139 µM) | 0.39 (≈ 0.544 µM) | 6.2 (≈ 8.65 µM) | 0.02 (≈ 0.0279 µM) | 0.02 (≈ 0.0279 µM) | 0.05 (≈ 0.0697 µM) | 0.01 (≈ 0.0139 µM) | 3.1 (≈ 4.32 µM) | 0.39 (≈ 0.544 µM) | 0.78 (≈ 1.09 µM) | 6.2 (≈ 8.65 µM) | 0.2 (≈ 0.279 µM) | 0.39 (≈ 0.544 µM) | ED50 [1]: 30.1 mg/kg; ED50 ([2]; ATCC6303, 168 h, oral, read-out: ED50): 37.3 mg/kg; ED50 ([2]; ATCC6303, sc, 168 h, subcutaneous): 4 mg/kg; MIC [4]: 0.39 µg/mL (≈ 0.544 µM); MIC [5]: 0.39 µg/mL (≈ 0.544 µM); ED50 ([6]; C203, 168 h, oral): 47.9 mg/kg; ED50 ([6]; C203, sc, 168 h, subcutaneous): 5 mg/kg; MIC ([7]; Escherichia coli, 24 h): 12.5 µg/mL (≈ 17.4 µM); MIC ([8]; ATCC9341, BHI agar, read-out: MIC): 0.01 µg/mL (≈ 0.0139 µM); MIC ([10]; Pseudomonas aeruginosa A5007, BHI agar, 20-24 h, read-out: MIC): > 100 µg/mL; MIC ([12]; Burkholderia cepacia, read-out: MIC): > 100 µg/mL; MIC ([15]; read-out: MIC): 1.56 µg/mL (≈ 2.18 µM); MIC ([21]; Enterococcus faecium, ATCC8043, 24 h): 0.1 µg/mL (≈ 0.139 µM); MIC ([22]; SPCMX669, Acinetobacter SP CMX 669, BHI agar, 20-24 h, read-out: MIC): 6.2 µg/mL (≈ 8.65 µM); MIC ([26]; Pseudomonas aeruginosa K799/WT, BHI agar, 20-24 h, read-out: MIC): 100 µg/mL (≈ 139 µM); MIC ([28]; CMX640, Providencia stuartii CMX 640, BHI agar, 20-24 h, read-out: MIC): > 100 µg/mL
2 | CC[C@H]1OC(=O)[C@H](C)[C@@H](O[C@H]2C[C@@](C)(OC)[C@H](O)[C@H](C)O2)[C@H](C)[C@@H](O[C@@H]2O[C@H](C)C[C@H](N(C)C)[C@H]2O)[C@](C)(O)C[C@@H](C)[C@@H]2O[C@@]1(C)C(=O)[C@H]2C [Example 21, (4"R,9S)-9-Deoxo-11,12-dideoxy-9,12-epoxy-11-oxoerythromycin A] | 0.2 (≈ 0.279 µM) | 6.2 (≈ 8.66 µM) | 12.5 (≈ 17.5 µM) | 0.1 (≈ 0.14 µM) | 0.1 (≈ 0.14 µM) | 1.56 (≈ 2.18 µM) | 0.01 (≈ 0.014 µM) | 0.01 (≈ 0.014 µM) | 0.05 (≈ 0.0698 µM) | 0.01 (≈ 0.014 µM) | 0.78 (≈ 1.09 µM) | 0.2 (≈ 0.279 µM) | 0.39 (≈ 0.545 µM) | 3.1 (≈ 4.33 µM) | 0.2 (≈ 0.279 µM) | 0.2 (≈ 0.279 µM) | MIC ([7]; Escherichia coli JUHL, BHI agar, 20-24 h, read-out: MIC): 1.56 µg/mL (≈ 2.18 µM); MIC ([8]; Micrococcus luteus, ATCC9341, 24 h, BHI agar): ≤ 0.005 µg/mL; MIC ([10]; Pseudomonas aeruginosa, A5007, 24 h): > 100 µg/mL; MIC ([12]; Burkholderia cepacia, 2961, 24 h): > 100 µg/mL; MIC [31]: 1.56 µg/mL (≈ 2.18 µM); MIC ([15]; Staphylococcus aureus, A5177, 24 h): 1.56 µg/mL (≈ 2.18 µM); MIC ([21]; ATCC8043, Enterococcus faecium ATCC 8043, BHI agar, 20-24 h, read-out: MIC): 0.05 µg/mL (≈ 0.0698 µM); MIC ([22]; Acinetobacter, SPCMX669, 24 h): 0.39 µg/mL (≈ 0.545 µM); MIC [32]: 0.2 µg/mL (≈ 0.279 µM); MIC ([26]; Pseudomonas aeruginosa, K799/WT, 24 h): 100 µg/mL (≈ 140 µM); MIC ([28]; Providencia stuartii, CMX640, 24 h): > 100 µg/mL; MIC [33]: 0.2 µg/mL (≈ 0.279 µM)
